# Source: patent US8859545B2, “Tetrahydronaphthyridine and tetrahydropyrido[4,3-D]pyrimidine compounds and compositions thereof useful for the treatment of inflammatory and respiratory diseases” (Evotec AG, priority 2005, dated 2014)
# Tested on: P2X2/3 chimera (P2X2/3C)
# Assay: Calcium uptake assay (P2X antagonist assay, agonist-induced calcium influx)
# Format: cell-based
# Conditions: at 3 μM (symbol before the slash)
# Text: Human P2X3 (Accession no. NM_002559), P2X2 (Accession no. NM_170682) and Rat P2X3 (Accession no. NM_031075) and P2X2 (Accession no. NM_053656) are cloned into a mammalian expression vector (e.g., pcDNA5/TO or pcDNA3 Invitrogen). For coexpression of P2X2 and P2X3, the coding regions of both receptors were cloned into a bicistronic vector using methods similar to those described by Kawashima et al., Receptors Channels 5:53-60, 1998. The P2X2/3 chimera clone was created as described by Neelands et al, and then cloned into an expression vector as above. Receptors are expressed in cells (e.g., HEK293 or 1321N1) via transient transfection using standard lipid mediated transfection, or by creation of stable transfectants for each receptor. Cell lines are maintained in DMEM+5% Glutamax, the appropriate level of selective antibiotic, and 10% heat inactivated FBS.
# The agonist EC50 is determined at the start of the assay and compound IC50 experiments are run using a set agonist concentration (EC50-90 depending on cell line) as stimulus. The agonists used are αβMeATP, ATP, or other ATP analogs. Compounds may be tested at concentrations ranging from 1 μM to 10 μM. Functional activity of compounds at the P2X receptor is determined by measuring their ability to inhibit agonist-induced calcium influx. Compounds may be tested for antagonist activity against the P2X2/3 chimera, the P2X3 homomer, or the P2X2/3 heteromer. To test for antagonist activity, cells expressing the appropriate receptor are seeded onto 96 or 384 well plates 18-24 hours prior to assay. On the day of the assay, cells are loaded with calcium-sensitive fluorescent dye (e.g., Fluo-4 no wash reagent-Invitrogen cat# F36206, or the BD™ PBX Calcium Assay Kit-BD cat#640175) in Hank's Buffered Salt Solution (HBSS) with up to 10 mM supplemental CaCl2. Plates are incubated at 37° C. and then equilibrated at room temperature. Antagonism of agonist-induced calcium influx is measured using a fluorescent imaging plate reader. The assay comprises two stages: a pre-treatment phase followed by a treatment phase. Compounds may be tested as follows: For the pre-treatment phase, 50 μL of 3× concentration of test compound in HBSS is added to cells containing 100 μL of dye loading media to achieve a final concentration of 1×. For the treatment phase, at a set interval after pre-treatment, 50 μL of 1× test compound plus 4× agonist solution is added to cells. Fluorescence is measured at 0.1-3 second intervals with an excitation wavelength of 494 nm and an emission wavelength of 515 nm. Responses are measured as peak fluorescence after compound-agonist addition minus baseline fluorescence prior to treatment. Percent inhibition is calculated as follows: […]
# A calcium uptake assay was performed as described in paragraphs […] above.
row,SMILES,Ca Influx P2X2/3C % Inhibition at 3 μM/10 μM
1,Cc1ccc(N2CCc3ncnc(NCc4cccc(F)c4)c3C2)nc1 [Compound 57],++++/ ^ (compound exhibited 75% or greater inhibition at 3 μM)
2,Cc1ccc(N2CCc3ncnc(NCc4ccc(C(C)C)cc4)c3C2)nc1 [Compound 58],+/ (compound exhibited 0-25% inhibition at 3 μM)
3,COc1ccc(CN(C)c2ncnc3c2CN(c2ccc(C)cn2)CC3)cc1OC [Compound 59],++ (compound exhibited 25-50% inhibition at 3 μM)
4,Cc1ccc(N2CCc3ncnc(NCCc4cccc(C(F)(F)F)c4)c3C2)nc1 [Compound 61],++++ (compound exhibited 75% or greater inhibition at 3 μM)
5,Cc1ccc(N2CCc3ncnc(N(C)Cc4ccc(Cl)cc4)c3C2)nc1 [Compound 62],+/ (compound exhibited 0-25% inhibition at 3 μM)
6,COc1ccccc1CN(C)c1ncnc2c1CN(c1ccc(C)cn1)CC2 [Compound 63],+/ (compound exhibited 0-25% inhibition at 3 μM)
7,COc1cccc(CN(C)c2ncnc3c2CN(c2ccc(C)cn2)CC3)c1 [Compound 64],+/ (compound exhibited 0-25% inhibition at 3 μM)
8,CCc1ccc(CN(C)c2ncnc3c2CN(c2ccc(C)cn2)CC3)cc1 [Compound 65],+/ (compound exhibited 0-25% inhibition at 3 μM)
9,Cc1ccc(N2CCc3ncnc(N(C)Cc4cccc(Cl)c4)c3C2)nc1 [Compound 66],+/ (compound exhibited 0-25% inhibition at 3 μM)
10,Cc1ccc(N2CCc3ncnc(N(C)Cc4ccc(F)cc4)c3C2)nc1 [Compound 67],+ (compound exhibited 0-25% inhibition at 3 μM)
11,COc1ccc(CN(C)c2ncnc3c2CN(c2ccc(C)cn2)CC3)cc1 [Compound 68],+/ (compound exhibited 0-25% inhibition at 3 μM)
12,Cc1ccc(N2CCc3ncnc(N(C)Cc4ccc(C(F)(F)F)cc4)c3C2)nc1 [Compound 69],+/ (compound exhibited 0-25% inhibition at 3 μM)
13,Cc1ccc(CN(C)c2ncnc3c2CN(c2ccc(C)cn2)CC3)cc1 [Compound 70],++/ (compound exhibited 25-50% inhibition at 3 μM)
14,Cc1ccc(N2CCc3ncnc(NCc4cc(F)ccc4F)c3C2)nc1 [Compound 71],+++/ ^ (compound exhibited 50-75% inhibition at 3 μM)
15,Cc1ccc(N2CCc3ncnc(NCc4ccc(F)c(F)c4)c3C2)nc1 [Compound 73],++++/ ^ (compound exhibited 75% or greater inhibition at 3 μM)
16,Cc1ccc(N2CCc3ncnc(NCc4cc(C(F)(F)F)ccc4F)c3C2)nc1 [Compound 74],+/ (compound exhibited 0-25% inhibition at 3 μM)

row,SMILES,Ca Influx P2X2/3C % Inhibition at 3 μM/10 μM
1,Cc1ccc(N2CCc3ncnc(NCc4cc(F)cc(C(F)(F)F)c4)c3C2)nc1 [Compound 75],+/ (compound exhibited 0-25% inhibition at 3 μM)
2,Cc1ccc(N2CCc3ncnc(NCc4ccc(F)c(C(F)(F)F)c4)c3C2)nc1 [Compound 76],+/ (compound exhibited 0-25% inhibition at 3 μM)
3,Cc1ccc(N2CCc3ncnc(NCc4cccc(F)c4F)c3C2)nc1 [Compound 77],++++/ ^ (compound exhibited 75% or greater inhibition at 3 μM)
4,Cc1ccc(N2CCc3ncnc(NCc4ccc(Cl)cc4Cl)c3C2)nc1 [Compound 78],+/ (compound exhibited 0-25% inhibition at 3 μM)
5,Cc1ccc(N2CCc3ncnc(NCc4ccc(C)cc4C)c3C2)nc1 [Compound 79],++/ (compound exhibited 25-50% inhibition at 3 μM)
6,Cc1ccc(N2CCc3ncnc(NCc4cccc(C)c4C)c3C2)nc1 [Compound 80],+/ (compound exhibited 0-25% inhibition at 3 μM)
7,Cc1ccc(N2CCc3ncnc(NCc4ccc(Cl)cc4F)c3C2)nc1 [Compound 83],+++/ ^ (compound exhibited 50-75% inhibition at 3 μM)
8,Cc1ccc(N2CCc3ncnc(NCc4ccc(Cl)c(Cl)c4)c3C2)nc1 [Compound 85],+/ (compound exhibited 0-25% inhibition at 3 μM)
9,Cc1ccc(N2CCc3ncnc(NC(C)c4ccc(F)cc4)c3C2)nc1 (stereo not drawn) [Compound 86],++++/ ^ (compound exhibited 75% or greater inhibition at 3 μM)
10,COc1cc(CNc2ncnc3c2CN(c2ccc(C)cn2)CC3)cc(OC)c1 [Compound 87],+/ (compound exhibited 0-25% inhibition at 3 μM)
11,Cc1ccc(N2CCc3ncnc(NCc4cc(C(F)(F)F)ccc4Cl)c3C2)nc1 [Compound 89],+ (compound exhibited 0-25% inhibition at 3 μM)
12,Cc1ccc(N2CCc3ncnc(NCc4ccc(F)c(C)c4)c3C2)nc1 [Compound 98],++++/ ^ (compound exhibited 75% or greater inhibition at 3 μM)
13,Cc1ccc(N2CCc3ncnc(NCc4cc(Cl)ccc4F)c3C2)nc1 [Compound 111],+++/ ^ (compound exhibited 50-75% inhibition at 3 μM)
14,Cc1ccc(N2CCc3ncnc(NCc4cc(Cl)cc(Cl)c4)c3C2)nc1 [Compound 115],+/ (compound exhibited 0-25% inhibition at 3 μM)
15,Cc1ccc(N2CCc3ncnc(NCc4ccc(C(F)(F)F)cc4F)c3C2)nc1 [Compound 121],++++/ ^ (compound exhibited 75% or greater inhibition at 3 μM)
16,Cc1ccc(N2CCc3ncnc(NCc4cc(C(F)(F)F)cc(C(F)(F)F)c4)c3C2)nc1 [Compound 125],+/ (compound exhibited 0-25% inhibition at 3 μM)

# Same assay, conditions: at 10 μM (symbol after the slash)
row,SMILES,Ca Influx P2X2/3C % Inhibition at 3 μM/10 μM
1,COc1ccc(CN(C)c2ncnc3c2CN(c2ccc(C)cn2)CC3)cc1OC [Compound 59],**** (compound exhibited 25-50% inhibition at 10 μM)
2,Cc1ccc(N2CCc3ncnc(NCCc4cccc(C(F)(F)F)c4)c3C2)nc1 [Compound 61],**** (compound exhibited 25-50% inhibition at 10 μM)
3,Cc1ccc(N2CCc3ncnc(N(C)Cc4ccc(F)cc4)c3C2)nc1 [Compound 67],*** (compound exhibited 25-50% inhibition at 10 μM)
4,Cc1ccc(N2CCc3ncnc(NCc4cc(C(F)(F)F)ccc4Cl)c3C2)nc1 [Compound 89],* (compound exhibited 0-25% inhibition at 10 μM)
